Reference: US11993640B2, “Treating inflammatory lung disease” (United States Government as represented by the Department …, priority 2019, dated 2024)
Non-standard residues stand in square brackets, D forms with d. Residues, ends and D or L forms follow the SMILES beside them. *: point of attachment. Phenylacetyl(2,3,4,5,6-F5) = O=C(Cc1c(F)c(F)c(F)c(F)c1F)*; Phe(F5) = N[C@@H](Cc1c(F)c(F)c(F)c(F)c1F)C(=O)O; hArg = N=C(N)NCCCC[C@H](N)C(=O)O; 12Ado = NCCCCCCCCCCCC(=O)O; Nle = CCCC[C@H](N)C(=O)O; Orn = NCCC[C@H](N)C(=O)O; Abu = CC[C@H](N)C(=O)O; PhAc = O=C(Cc1ccccc1)*

Key:
NCI-N87 xenograft = experiment: Xenograft tumor growth in nude mice, stomach cancer N87; format: in vivo; settings: Panel D, 10 weeks
Procedure: (§1) The peptides' activity was compared with GHRH antagonist MIA-602. All statistical analyzses were performed from comparing GHRA antagonists to non-treated tumor (control).
(§2) Peptides and chemicals. GHRH antagonists MIA-602 and AVR-GHRH antagonists (see Table 2 above) were synthesized by solid phase methods and purified by HPLC. The peptides were dissolved in DMSO and further diluted in 10% 1, 2-propanediol. The final concentration of peptides was 50 µg/ml in 10% 1, 2-propanediol containing 0.1% of DMSO.
(§3) Cell culture. Human cancer cell lines including pancreatic (PANC-1 and CFPAC-1), lung (HCC827 and H460), stomach (NCI-N87), prostate (PC3), brest (MX-1 and HCC-1806), colorectal (HT-29), and ovarian (SK-OV-3 and OVCAR-3) were obtained from the American Type Culture Collection (ATCC) and cultured at 37° C. in a humidified 95% air/5% CO2 atmosphere in the medium recommended by ATCC.
Xenograft models of human cancers in nude mice. Female athymic (NCr nu/nu) nude mice, 5-to 6-weeks-old, obtained from the Envigo labs (Tampa, FL), were housed in laminar airflow cabinets under pathogen-free conditions with a 12-h light/12-h dark schedule, and were fed autoclaved standard chow and water. To generate mice with xenografted tumors, tumor xenografts were initiated by subcutaneous (s.c.) injection of […] human cancer cells into female nude mice. After about 4 weeks the resulting tumors were dissected and collected after removing necrosis tissues. The tumors were then cut into particles with size of ˜3 mm3 and transplanted s.c. by trocar needle into experimental animals. When tumors grew to the size of 50-60 mm3 (by volume), […] of 5 μg of GHRH antagonists MIA-602 or AVR-compounds (2-10 μg as indicated), or vehicle solutions (0.1% DMSO in 10% 1, 2-propanediol) respectively. Tumor sizes were measured weekly.
Statistical analysis. One-way ANOVA followed by Bonferroni comparison were performed. Data are expressed as Mean±SEM. To determine statistical significance between animal groups, two-tailed Student's t-test was conducted. Differences were considered significant when p<0.05.
Results. […] FIG. 1A-N represents in vivo inhibition of tumor growth during the treatment with GHRH antagonist MIA-602 and selected AVR antagonists in nude mice xenografted with various human tumors including pancreatic cancer PANC-1 (FIG. 1A) and CFPAC-1 (FIG. 1I); lung cancer HCC827 (FIGS. 1B, C) and H460 (FIG. 1H); stomach cancer N87 (FIGS. 1D-F); colon cancer HT-29 (FIG. 1G); breast cancer MX-1 and HCC-1806 (FIGS. 1J, K); ovarian cancer SK-OV-3 and OVACAR-3 (FIGS. 1L, M) and prostate cancer PC3 (FIG. 1N). See also Table 5.

OVCAR-3 xenograft = experiment: Xenograft tumor growth in nude mice, ovarian cancer OVCAR-3; format: in vivo; settings: Panel M, 9 weeks, 5 μg/day s.c.
Procedure: as §1, §2, §3
Xenograft models of human cancers in nude mice. Female athymic (NCr nu/nu) nude mice, 5-to 6-weeks-old, obtained from the Envigo labs (Tampa, FL), were housed in laminar airflow cabinets under pathogen-free conditions with a 12-h light/12-h dark schedule, and were fed autoclaved standard chow and water. To generate mice with xenografted tumors, tumor xenografts were initiated by subcutaneous (s.c.) injection of […] human cancer cells into female nude mice. After about 4 weeks the resulting tumors were dissected and collected after removing necrosis tissues. The tumors were then cut into particles with size of ˜3 mm3 and transplanted s.c. by trocar needle into experimental animals. When tumors grew to the size of 50-60 mm3 (by volume), mice were randomized into groups and treated daily for 4-8 weeks by subcutaneous administration of 5 μg of GHRH antagonists MIA-602 or AVR-compounds (2-10 μg as indicated), or vehicle solutions (0.1% DMSO in 10% 1, 2-propanediol) respectively. Tumor sizes were measured weekly.
Statistical analysis. One-way ANOVA followed by Bonferroni comparison were performed. Data are expressed as Mean±SEM. […]

[1] = system: mouse lung fibroblasts (Mlg 2908); experiment: Cellular respiration, Seahorse XF Cell Mito Stress Test; format: cell-based; settings: 24 hours
Procedure: (§4) Lung fibroblasts. Newborn mouse lung fibroblasts (Mlg 2908) were obtained from the American Type Culture Collection, Manassas, VA and cultured in Eagle's minimal essential medium. Cells were grown in 6-well plates before incubation with 1 or 5 μM MIA-602 or vehicle, RNA isolation, and oxygen consumption measurements.
Cellular respiration. The effects of MIA-602 on mouse lung fibroblast oxygen consumption was measured using the Agilent Seahorse XF Cell Mito Stress Test (Agilent Technologies, Santa Clara, CA) (Divakaruni A, Paradyse A, Ferrick D, Murphy A, Jastroch M (2014). Methods in Enzymology 547:309-354). Fibroblasts were incubated with vehicle, 1 or 5 μM MIA-602 for 24 hours before measurement of oxygen consumption. One day before assay 80,000 fibroblasts were seeded into Seahorse 24-well plates (n=6 wells per condition). Basal respiration was established and oligomycin, FCCP and rotenone plus antimycin A were added sequentially to measure ATP production, uncoupled respiration; and, non-mitochondrial oxygen consumption (Wangpaichitr, Wu C, Li Y, Nguyen D, Kandemir H, Shah S, Chen S, Feun L, Prince J, Kuo M, Savaraj N (2017). Oncotarget 8(30):49275-49292).

[2] = system: mouse lung fibroblasts (Mlg 2908); experiment: RNAseq of cultured lung fibroblasts; format: cell-based; settings: 1 and 5 μM, normal fibroblasts not exposed to bleomycin
Procedure: as §4
RNA was extracted from cultured fibroblasts using a Direct-zol RNA MicroPrep kit (R2060; Zymo Research, Irvine, CA). Cells were washed with PBS and lysed in TRIreagent™, then purified using Direct-zol RNA columns. DNase I treatment was done in columns and RNA eluted in DNase/Rnase-free water.
RNAseq and Pathway analyses. At least 10 ng of total RNA was used as input for the KAPA RNA HyperPrep Kit with RiboErase (HMR) to create ribosomal RNA-depleted sequencing libraries, including sample indexing, to allow for multiplexing. Cluster generation and sequencing was done on the Illumina cBOT and HiSeq 3000 using reagents provided by Illumina, finally generating >32 million single-end 100 base reads per sample.
De-multiplexed FASTQ files were created with Illumina supplied scripts in BCL2FASTQ software (v2.17). […]
Gene counts were normalized using trimmed mean of M-values (TMM) method. Differential expression between groups was calculated with the exact test implemented in edgeR (Robinson M, McCarthy D, Smyth G (2010). Bioinformatics 26:139-140). […]

| Structure (SMILES) | Tumor Growth % (NCI-N87 xenograft; 2 μg/day s.c.) [%] | Tumor Growth % (OVCAR-3 xenograft) [%] | Spare respiratory capacity ([1]; 5 μM) | Basal oxygen consumption / basal respiration ([1]; 5 μM, compared to vehicle) | Maximal, uncoupled respiration after FCCP ([1]; 5 μM, compared to vehicle) | Non-mitochondrial respiration after antimycin A and rotenone ([1]; 1 and 5 μM) | % Inhibition (NCI-N87 xenograft; 2 μg/day s.c., vs control) [%] | Tumor Growth % (NCI-N87 xenograft; 5 μg/day s.c.) [%] | Fibroblast gene expression [2] |
| --- | --- | --- | --- | --- | --- | --- | --- | --- | --- |
| CCCC[C@H](NC(=O)[C@@H](NC(=O)[C@H](CC(=O)O)NC(=O)[C@H](CCC(N)=O)NC(=O)[C@H](CC(C)C)NC(=O)[C@H](CC(C)C)NC(=O)[C@H](CCCCN)NC(=O)[C@H](CCCNC(=N)N)NC(=O)[C@H](C)NC(=O)[C@H](CO)NC(=O)[C@H](CC(C)C)NC(=O)[C@H](CCC(N)=O)NC(=O)[C@H](CC)NC(=O)[C@H](CC(C)C)NC(=O)[C@@H](NC(=O)[C@H](CCCCN)NC(=O)[C@H](CCCNC(=N)N)NC(=O)[C@H](Cc1ccc(OC)cc1)NC(=O)[C@H](CCCCNC(=N)N)NC(=O)[C@H](C)NC(=O)[C@@H](NC(=O)[C@H](Cc1c(F)c(F)c(F)c(F)c1F)NC(=O)[C@@H](NC(=O)[C@H](C)NC(=O)[C@H](CC(=O)O)NC(=O)[C@@H](CCCNC(=N)N)NC(=O)[C@H](Cc1ccc(O)cc1)NC(=O)CCCCCCCCCCCNC(=O)Cc1c(F)c(F)c(F)c(F)c1F)[C@@H](C)CC)[C@@H](C)O)C(C)C)[C@@H](C)CC)C(=O)N[C@H](CCCNC(=N)N)C(=O)N[C@@H](CCCCNC(=N)N)C(=O)NC [AVR-235] ({Phenylacetyl(2,3,4,5,6-F5)-12Ado}-Y[dR]DAI[Phe(F5)]TA[hArg]Y(Me)RKVL[Abu]QLSARKLLQDI[Nle][dR][hArg]-NHMe) | 558.60 | – | – | – | – | – | – | – | – |
| CCCC[C@H](NC(=O)[C@@H](NC(=O)[C@H](CC(=O)O)NC(=O)[C@H](CCC(N)=O)NC(=O)[C@H](CC(C)C)NC(=O)[C@H](CC(C)C)NC(=O)[C@H](CCCN)NC(=O)[C@H](Cc1c[nH]cn1)NC(=O)[C@H](C)NC(=O)[C@H](CO)NC(=O)[C@H](CC(C)C)NC(=O)[C@H](CCC(N)=O)NC(=O)[C@H](CC)NC(=O)[C@H](CC(C)C)NC(=O)[C@@H](NC(=O)[C@H](CCCN)NC(=O)[C@H](Cc1c[nH]cn1)NC(=O)[C@H](Cc1ccc(OC)cc1)NC(=O)[C@H](CCCCNC(=N)N)NC(=O)[C@H](C)NC(=O)[C@@H](NC(=O)[C@H](Cc1c(F)c(F)c(F)c(F)c1F)NC(=O)[C@@H](NC(=O)[C@H](C)NC(=O)[C@H](CC(=O)O)NC(=O)[C@@H](CCCNC(=N)N)NC(=O)[C@H](Cc1ccc(O)cc1)NC(=O)CCCCCCCCCCCNC(=O)Cc1ccccc1)[C@@H](C)CC)[C@@H](C)O)C(C)C)[C@@H](C)CC)C(=O)N[C@H](CCCNC(=N)N)C(=O)N[C@@H](CCCCNC(=N)N)C(N)=O [MIA-602, PhAC-Ada, Tyr D-Arg, Asp, Ala, Ile, 5FPhe, Thr, Ala, Har, Tyr(Me), His, Orn, Val, Leu, Abu, Gin, Leu, Ser, Ala, His, Orn, Leu, Leu, Gin, Asp, Ile, Nle, D-Arg, Har NH2, reference compound] ({PhAc-12Ado}-Y[dR]DAI[Phe(F5)]TA[hArg]Y(Me)H[Orn]VL[Abu]QLSAH[Orn]LLQDI[Nle][dR][hArg]-NH2) | 1065.00 | 267.2 | increased | increased basal oxygen consumption | increased | appeared to increase non-mitochondrial respiration | 13.0 | 767.00 | significant downregulation of genes involved in collagen fibril organization, cell-matrix adhesion and elastic fiber assembly |
